We go through three compounds from paper PMC11397024, “Strategic Fluorination to Achieve a Potent, Selective, Metabolically Stable, and Orally Bioavailable Inhibitor of CSNK2” (Molecules, 2024).

Like-named read-outs stand apart in the source and are kept apart here. Marks after values point to notes of the source that are not given here.

One data set has as its system SARS-CoV-2. Nature of the data set: SARS-CoV-2 assay in A549-ACE2 cells. The note with it: Severe acute respiratory syndrome coronavirus 2, triplicate, read-out: SARS-CoV-2 pIC50 (converted). The data set is classed as cell-based.
A short description of data set [1]: CellTiter-Glo cytotoxicity assay. The data set is classed as cell-based, Human. Conditions: human, A549-ACE2 cells, 48 h, CellTiter-Glo, quadruplicate. As for the experimental part: A549-ACE2 cells were maintained in low-glucose DMEM (Gibco, Waltham, MA, USA) supplemented with 10% FBS, 1% NEAA, and 1% L-glutamine. No antibiotics were used. Cells were plated at 2000 cells/well in a 384-well plate (Costar, Glendale, AZ, USA) and incubated overnight (37 °C, 5% CO2) before adding the compound. Compounds were added in quadruplicate and incubated for 48 h. DMSO percentage was constant across all concentrations of the compound. Cell viability was measured using CellTiter-Glo2 (Promega, Madison, WI, USA) and the luminescence signal was read on a GloMax plate reader (Promega, Madison, WI, USA). Dose–response analysis was performed using GraphPad Prism.
For orientation: ATP-based viability assays read luminescence as a measure of living cells.

Data set [2] is described as follows: Liver microsomal stability, human. The class given is in vitro ADME. Conditions: pH 7.4, human liver microsomes, five time points over 1 h, read-out: HLM CLint.
The nature of data set [3]: Hepatocyte stability, human. The class given is in vitro ADME. The note with it: cryopreserved hepatocytes, over 2 h. Here is the method: Human cryopreserved hepatocytes were supplied by BioIVT (lot QZW, 10 pooled donors, Westbury, NY, USA). Mouse cryopreserved hepatocytes were supplied by BioIVT (lot ZPG, pooled male CD-1). Vials of cryopreserved hepatocytes were removed from storage and thawed in a 37 °C water bath with gentle shaking, and then the contents were poured into a 50 mL thawing medium conical tube. Vials were centrifuged at 100× g for 10 min at room temperature. The thawing medium was aspirated, and hepatocytes were resuspended with a serum-free incubation medium to yield ~1.5 × 10^6 cells/mL. Cell viability and density were counted using AO/PI fluorescence staining, and then cells were diluted with a serum-free incubation medium to a working cell density of 0.5 × 10^6 viable cells/mL. Aliquots of 198 μL of hepatocytes were dispensed into each well of a 96-well noncoated plate. The plate was placed in an incubator for approximately 10 min. […] Peak areas were determined from extracted ion chromatograms, and the slope value, k, was determined by linear regression of the natural logarithm of the remaining percentage of the parent drug vs. incubation time curve. The intrinsic clearance (CLint in μL/min/10^6 cells) was calculated using the relationship CLint = kV/N, where V is the incubation volume (0.2 mL) and N is the number of hepatocytes per well (0.1 × 10^6 cells). […]

The target in the next data set is T1, CSNK2A1 (Homo sapiens, UniProt P68400).
T1 construct: expressed in transfected cells; host or cells: HEK293
Also on record: method as in PMID 37901516. The note with it: NanoBRET; cited from earlier work. A general note: In BRET a luciferase serves as donor, and the signal depends on an acceptor being close.

A further data set has as its target T2, CSNK2A2 (Homo sapiens, UniProt P19784).
T2 construct: expressed in transfected cells; host or cells: HEK293
Also on record: method as in PMID 37901516. The note with it: NanoBRET; cited from earlier work.

Data set [4] deals with mouse hepatitis virus (MHV). Also on record: method as in PMID 37901516. Conditions: cited from earlier work.
The conditions of data set [5]: cited from earlier work.
For data set [6] the following is noted: cited from earlier work. This is another data set of the same source.
For data set [7] the following is noted: cited from earlier work. The source holds these as a separate data set.
The subject of data set [8] is mouse hepatitis virus (MHV). Nature of the data set: MHV assay (MHV-nLuc in DBT cells). Conditions: read-out: IC50 for the assay; MHV-nLuc, DBT cells; positive control.
Procedure: DBT cells were cultured at 37 °C in Dulbecco’s modified Eagle medium (DMEM; Sigma-Aldrich, St. Louis, MO, USA) supplemented with 10% fetal bovine serum (FBS; Avantor, Randor, PA, USA) and penicillin and streptomycin (Sigma-Aldrich, St. Louis, MO, USA). DBT cells were plated in 96-well plates to be 80% confluent at the start of the assay. Test compounds or positive control EIDD-1931 were diluted to 15 μM in DMEM. Serial 4-fold dilutions were made in DMEM, providing a concentration range of 15–0.22 μM. Media were aspirated from the DBT cells, and 100 μL of the diluted test compounds was added to the cells for 1 h at 37 °C. After 1 h, MHV-nLuc5 was added at an MOI of 0.1 in 50 μL of DMEM so that the final concentration of the first dilution of the compound was 10 μM (T = 0). After 10 h, the media were aspirated, and the cells were washed with PBS and lysed with passive lysis 5X buffer (Promega, Madison, WI, USA) for 20 min at room temperature. Relative light units (RLUs) were measured using a luminometer (Promega; GloMax, Madison, WI, USA). Triplicate data were analyzed in GraphPad Prism version 9.4.1 for macOS to generate IC50 values.
For data set [9] the following is noted: cited from earlier work. The source holds these as a separate data set.

T2 sequence (P19784 whole entry): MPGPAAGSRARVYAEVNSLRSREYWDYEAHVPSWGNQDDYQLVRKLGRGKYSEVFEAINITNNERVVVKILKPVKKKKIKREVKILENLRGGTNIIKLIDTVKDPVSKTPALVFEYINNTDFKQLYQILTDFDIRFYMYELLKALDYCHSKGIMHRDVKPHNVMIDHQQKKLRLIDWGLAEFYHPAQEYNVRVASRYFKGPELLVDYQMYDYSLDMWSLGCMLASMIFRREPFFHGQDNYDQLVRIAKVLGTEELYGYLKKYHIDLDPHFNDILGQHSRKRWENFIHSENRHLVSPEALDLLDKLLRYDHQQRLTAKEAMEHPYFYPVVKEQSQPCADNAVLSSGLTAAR
T1 sequence (P68400 whole entry): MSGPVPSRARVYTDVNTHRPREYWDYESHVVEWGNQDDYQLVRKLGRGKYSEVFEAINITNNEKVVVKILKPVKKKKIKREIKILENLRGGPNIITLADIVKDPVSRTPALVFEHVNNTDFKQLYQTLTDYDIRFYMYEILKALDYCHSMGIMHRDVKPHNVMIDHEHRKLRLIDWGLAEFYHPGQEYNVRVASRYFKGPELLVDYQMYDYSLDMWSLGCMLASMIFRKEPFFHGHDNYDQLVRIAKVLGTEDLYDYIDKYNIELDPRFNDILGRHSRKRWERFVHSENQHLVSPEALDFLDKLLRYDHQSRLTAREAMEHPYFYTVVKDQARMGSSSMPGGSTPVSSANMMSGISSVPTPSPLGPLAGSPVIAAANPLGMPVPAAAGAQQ

As for `CCC(=O)Nc1cc(Nc2cc(NC3CC3)n3ncc(C#N)c3n2)ccc1N1CCC[C@H](NC)C1` [Compound 1], the IC50 in the data set with SARS-CoV-2 was 631 nM. In addition, in data set [1] (0.1 μM), the viability at 48 h, 0.1 µM came out at 100%. For the same compound, the viability at 48 h, 1 µM in data set [1] (1.0 μM) was determined as 79%. Also, the CLint scaled at 5 μM in data set [2] amounted to 12.5 mL/min/kg. This compound displayed a CLint scaled at 1 μM in [3] of 4.1 mL/min/kg. In addition, at CSNK2A1, the “CSNK2A1 pIC50” value is reported as 7.6 ^f. Further, at CSNK2A2, the “CSNK2A2 pIC50” value is 7.7 ^f. The “MHV pIC50” value in data set [4] was 6.9 ^f. Also, the “Kinetic Solubility” value in data set [5] (pH 7.4) was 71 ^f μg/mL. In addition, in data set [6] (mouse plasma, 10 mg/kg i.p.), the AUClast was 7.01 µM·h, the peak concentration (Cmax) was 4.71 µM and the Tmax is given as 0.25 h. Also, the t1/2 in data set [6] (mouse, in vivo, ip, 10 mg/kg) is 1.2 h. In data set [6] (mouse, in vivo, iv, 1 mg/kg), the AUClast was 1.4 µM·h, the Vdss is 2.6 L/kg and the t1/2 was 1.3 h. In data set [7], the “Mouse Hepatocytes CLint” value is 143 mL/min/kg.

For the compound `O=c1nc(NO)ccn1[C@@H]1O[C@H](CO)[C@@H](O)[C@H]1O` [EIDD-1931, reference compound], the IC50 in data set [8] is 1200 nM.

Turning to `CCC(=O)Nc1cc(Nc2cc(NC3CC3)n3ncc(C#N)c3n2)ccc1C` [SGC-CK2-1, reference compound], the “stability in mouse liver microsomes” value in [9] was “poor stability in mouse liver microsomes”. Also, the solubility entry in [5] was “poor solubility”.

By viability is commonly meant a read-out of living cells in per cent, often relative to untreated cells. A higher viability goes with better survival. Broadly, the Cmax is the highest concentration seen after dosing. A word on the Tmax: it is the time at which the peak concentration occurs. A word on the Vdss: it is the apparent volume that relates the amount in the body to the concentration in plasma or blood.
